Experimental data published in article PMC6121902, “Conjugation with Dihydrolipoic Acid Imparts Caffeic Acid Ester Potent Inhibitory Effect on Dopa Oxidase Activity of Human Tyrosinase” (International Journal of Molecular Sciences, 2018).
“And” between values parts separate entries of the source, which are not always exact repeats. Identical values can stand only once. Like-named read-outs stand apart in the source and are kept apart here.

Experiments:
[1] = test system: mushroom tyrosinase; set-up: method as in PMID 31105178; details: cited from earlier work
[2] = test system: HBL cells; experiment: MTT viability assay; assay type: cell-based, human; details: 24 h; for cytotoxicity (MTT): 25 or 50 μM
Protocol: (§1) The effect of the inhibitors on cell viability was evaluated by phase contrast microscopy and by means of the 3-(4,5-dimethyl-2-thiazolyl)-2,5-diphenyl-2H-tetrazolium bromide (MTT) assay. HBL cells were treated with the compounds (25 or 50 μM) for 24 h. At the end of the incubation period, phase contrast images were taken and the MTT assay was performed to test the cytotoxicity of each compound.
(§2) Figure 4 Effect of caffeic acid derivatives on the viability of HBL cells. Cells were incubated for 24 h with the inhibitors at 25 or 50 µM. (a) Phase contrast microscopy images. Representative images are shown (n = 8) Bar size: 50 μm. (b) MTT viability assay. Cells were grown in 96-well plates to ~80% confluence in the presence or absence of the indicated compounds. After 24 h, MTT was added (1 mg/mL final concentration) and maintained in the culture media for 4 h. Cells were PBS-washed twice and solubilized in DMSO. Absorbance at 562 nm was measured and represented as a percentage of the control value. The mean ± SEM of 8 independent experiments is shown. **** p < 0.0001.
Cell viability was measured by the MTT assay. HBL cells were seeded into the wells of a 96-wells plate at a density of 10,000 cells in 200 μL cell culture media. The seeded cells were incubated for 18 h at 37 °C, then treated with the compounds (25 or 50 μM) for 24 h or left untreated. At the end of the incubation period, images were taken and the MTT assay was performed to test the cytotoxicity of the different caffeic acid derivatives.

[3] = target: mushroom tyrosinase; experiment: Mushroom tyrosinase TH activity inhibition (dopachrome formation at 475 nm, L-tyrosine substrate); assay type: biochemical; details: 10 min pre-incubation, L-tyrosine 1 mM, tyrosinase 20 U/mL, pH 6.8
Protocol: The inhibition properties of LCAME were preliminarily investigated on mushroom tyrosinase by spectrophotometric monitoring of dopachrome formation, a method which is routinely used for evaluation of the activity of potential tyrosinase inhibitors. L-DOPA was used as the substrate to test DO activity while L-tyrosine was used to test TH activity. LCAME was incubated in 50 mM phosphate buffer in the presence of mushroom tyrosinase (20 U/mL) at room temperature. After 10 min, L-DOPA or L-tyrosine (1 mM final concentration) were added and the absorbance at 475 nm was measured at different times over 10 min. For comparative purposes the effects of CAME were evaluated as well. Stock methanolic solutions of LCAME or CAME, ranging in concentration from 0.02 to 20 mM concentration were prepared dissolving a proper amount of the compound of interest in methanol. 100 μL of these solutions were added to 2 mL of 50 mM phosphate buffer at pH 6.8 (final concentrations range: 0.001–1 mM), in the presence or in the absence of 20 U/mL mushroom tyrosinase. […] Spectrophotometric analysis was performed by measuring the absorbance at 475 nm for 10 min at 2 min intervals. […] In separate experiments, the assay was run as above with LCAME or CAME at 100 μM, in the presence or absence of L-DOPA, and after 10 min the mixture was analyzed by HPLC.

[4] = test system: HBL cells; experiment: Phase contrast microscopy of cell morphology; assay type: cell-based, human; details: 50 μM, 24 h
Protocol: as §1, §2
Cell viability was measured by the MTT assay. HBL cells were seeded into the wells of a 96-wells plate at a density of 10,000 cells in 200 μL cell culture media. The seeded cells were incubated for 18 h at 37 °C, then treated with the compounds (25 or 50 μM) for 24 h or left untreated. […]

[5] = test system: mushroom tyrosinase; experiment: Consumption of inhibitor by mushroom tyrosinase (substrate test, HPLC); assay type: biochemical; details: 100 μM, 10 min
Protocol: Some tyrosinase inhibitors are also substrates of the enzyme and this is a critical issue because their oxidation can lead to the formation of highly reactive, cytotoxic o-quinones. To rule out this possibility, either LCAME or CAME at 100 μM were exposed to mushroom tyrosinase, in the absence of L-DOPA, and after 10 min, the reaction mixtures were analyzed by HPLC. […] HPLC analyses for determination of the consumption of CAME and LCAME in the presence of mushroom tyrosinase were performed on a Agilent 1100 binary pump instrument equipped with a UV-visible detector using an octadecylsilane-coated column, 250 mm × 4.6 mm, 5 μm particle size (Phenomenex Sphereclone ODS, Bologna, Italy) at 0.7 mL/min, using the following gradient: 0.1% formic acid (eluant a)/ methanol (eluant b): 40% b, 0–10 min; from 40 to 80% b, 47.5–52.5 min; from 80 to 40% b, 52.5–57.5 min. Detection wavelength was set at 280 nm. Stock methanolic solutions of LCAME or CAME, ranging in concentration from 0.02 to 20 mM concentration were prepared dissolving a proper amount of the compound of interest in methanol. 100 μL of these solutions were added to 2 mL of 50 mM phosphate buffer at pH 6.8 (final concentrations range: 0.001–1 mM), in the presence or in the absence of 20 U/mL mushroom tyrosinase. After 10 min incubation at room temperature, 20 μL of a 100 mM solution of L-DOPA or L-tyrosine in 0.6 M HCl, were added (final concentration: 1 mM). Spectrophotometric analysis was performed by measuring the absorbance at 475 nm for 10 min at 2 min intervals. In control experiments, the reaction was run in the absence of LCAME. When required, the experiment was performed as above but adding L-DOP A soon after the addition of LCAME ([…]). In separate experiments, the assay was run as above with LCAME or CAME at 100 μM, in the presence or absence of L-DOPA, and after 10 min the mixture was analyzed by HPLC.

[6] = target: mushroom tyrosinase; experiment: Mushroom tyrosinase DO activity inhibition (dopachrome formation at 475 nm, L-DOPA substrate); assay type: biochemical; details: 10 min pre-incubation, L-DOPA 1 mM, tyrosinase 20 U/mL, pH 6.8
Protocol: The inhibition properties of LCAME were preliminarily investigated on mushroom tyrosinase by spectrophotometric monitoring of dopachrome formation, a method which is routinely used for evaluation of the activity of potential tyrosinase inhibitors. L-DOPA was used as the substrate to test DO activity while L-tyrosine was used to test TH activity. LCAME was incubated in 50 mM phosphate buffer in the presence of mushroom tyrosinase (20 U/mL) at room temperature. After 10 min, L-DOPA or L-tyrosine (1 mM final concentration) were added and the absorbance at 475 nm was measured at different times over 10 min. For comparative purposes the effects of CAME were evaluated as well. Stock methanolic solutions of LCAME or CAME, ranging in concentration from 0.02 to 20 mM concentration were prepared dissolving a proper amount of the compound of interest in methanol. 100 μL of these solutions were added to 2 mL of 50 mM phosphate buffer at pH 6.8 (final concentrations range: 0.001–1 mM), in the presence or in the absence of 20 U/mL mushroom tyrosinase. After 10 min incubation at room temperature, 20 μL of a 100 mM solution of L-DOPA or L-tyrosine in 0.6 M HCl, were added (final concentration: 1 mM). Spectrophotometric analysis was performed by measuring the absorbance at 475 nm for 10 min at 2 min intervals. In control experiments, the reaction was run in the absence of LCAME. When required, the experiment was performed as above but adding L-DOP A soon after the addition of LCAME ([…]). In separate experiments, the assay was run as above with LCAME or CAME at 100 μM, in the presence or absence of L-DOPA, and after 10 min the mixture was analyzed by HPLC.

[7] = test system: tyrosinase; experiment: Tyrosinase expression by Western blot (αPEP7), with or without NDP-MSH; assay type: cell-based, human
Protocol: Control HBL cells or cells grown in the presence of CAME (25 µM) or LCAME (25 or 50 µM) were stimulated for 48 h with a potent analogue of αMSH ([Nle^4,D-Phe^7]-α-MSH (NDP-MSH), 10^−7 M). Use of the 50 μM concentration of CAME was avoided since this concentration was somewhat cytotoxic as shown above. Expression of tyrosinase was then evaluated by Western blot using a specific antibody directed against tyrosinase (αPEP7). […] However, other mechanisms such as interference with activation and/or functional coupling of the melanocortin 1 receptor responsible for αMSH actions cannot be ruled out and a complete study of these possibilities is beyond the scope of this work. Accordingly, interference of LCAME with MITF expression or activity remains speculative at this stage. In any case, this preliminary observation deserves confirmation using cultured normal human melanocytes and further mechanistic analysis, as it may further support the potential use of LCAME as a skin depigmenting agent. Indeed, LCAME may act at two different levels, on one hand by inhibiting preexisting tyrosinase by a competitive mechanism, and on the other hand by interfering with αMSH-dependent induction of tyrosinase expression.
Figure 5 Effect on tyrosinase expression of CAME (25 µM) and LCAME (25 and 50 µM). HBL melanoma cells were incubated with or without the indicated compounds and stimulated with NDP-MSH (10^−7 M). After 48 h of treatment, tyrosinase levels were compared by Western blotting, performed as described in Materials and Methods. […] For each experimental condition, the fold-increase of tyrosinase abundance upon NDP-MSH treatment relative to the corresponding control was determined by densitometric analysis (ImageJ software) and is shown below the figure.
After protein separation by SDS-PAGE, they were transferred from the gel to the membrane and immunochemical detection with anti-PEP7 was performed as previously described. Briefly, the filters were blocked for 1 h in 2% bovine serum albumin in 1% Tween 20 PBS and incubated overnight at 4 °C with primary antibodies (1:4000 dilution). The filters were washed and further incubated with peroxidase-labeled mouse anti-rabbit IgG (1:5000 dilution). Staining and detection were done with ECL Plus Western Blotting Detection System chemiluminescent substrate (Thermo Fisher Scientific, Waltham, MA, USA). Images were acquired in a Fusion Solo.6S system (Vilber-Lourmat, Marne La Vallée, France). Signal intensities were estimated with ImageJ (National Institutes of Health, Bethesda, […], USA) in independent blots, and normalized with the corresponding loading controls (obtained by staining the membranes with an anti-ERK2 antibody).

[8] = target: T1, tyrosinase from HBL human melanoma cells (Homo sapiens, UniProt P14679); experiment: DO activity of human tyrosinase in HBL cell extracts (MBTH assay, 490 nm); assay type: biochemical; details: HBL cell extracts
T1 construct: endogenous in cells; host or cells: HBL human melanoma cells (detergent-solubilized cell extract)
T1 sequence (P14679 19-529): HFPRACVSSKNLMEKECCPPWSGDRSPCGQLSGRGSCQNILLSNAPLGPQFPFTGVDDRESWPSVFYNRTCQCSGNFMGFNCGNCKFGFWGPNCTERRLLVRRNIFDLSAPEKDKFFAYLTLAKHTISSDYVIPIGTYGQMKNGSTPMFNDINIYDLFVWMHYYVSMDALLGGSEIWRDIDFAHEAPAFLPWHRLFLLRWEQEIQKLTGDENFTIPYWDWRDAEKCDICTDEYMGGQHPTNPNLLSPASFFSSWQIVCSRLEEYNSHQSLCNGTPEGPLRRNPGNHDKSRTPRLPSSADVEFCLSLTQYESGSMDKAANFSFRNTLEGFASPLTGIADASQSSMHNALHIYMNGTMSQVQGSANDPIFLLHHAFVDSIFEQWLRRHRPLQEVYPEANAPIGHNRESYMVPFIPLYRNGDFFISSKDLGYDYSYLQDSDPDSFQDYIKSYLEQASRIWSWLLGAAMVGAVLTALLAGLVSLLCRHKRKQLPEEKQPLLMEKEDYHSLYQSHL
Protocol: In further experiments, the effect of LCAME and LCA was investigated on extracts from HBL human melanoma cells expressing tyrosinase, and the inhibition of DO activity was evaluated. DO activity was determined according to Winder and Harris with some minor modifications: cell extracts were incubated with 3-methyl-2-benzothiazolinone hydrazone (MBTH) and absorbance at 490 nm was measured every 10 min for 1 h.
Cells were solubilized in 1% Igepal, 1% phenylmethylsulfonyl fluoride, 50 mM phosphate buffer (pH 6.8) and centrifuged at 2000 rpm for 5 min.
DO activity determinations were performed according to Winder and Harris with minor modifications. Briefly, cell extracts (usually 50–100 µg protein/assay) were incubated with 5 mM MBTH and 2.5 mM L-DOPA in 50 mM phosphate buffer pH 6.8 in the presence of the indicated concentrations of the compound of choice in a 96-wells plate. DO activity was measured spectrophotometrically in a microplate reader every ten minutes for one hour and was expressed as the slopes calculated with the GraphPad Prism 7 software (Linear Regression, San Diego, CA, USA).
For the analysis of kinetic parameters, the assays were run as above, using different concentrations of L-DOPA (from 0.1 to 2.0 mM) and of the inhibitor (0, 10 and 25 μM) to build the Lineweaver–Burk plot.

[9] = test system: T2, human tyrosinase; experiment: TH activity of human tyrosinase; assay type: biochemical; details: compared with DO activity
T2 construct: endogenous in cells

[10] = target: mushroom tyrosinase; set-up: method as in PMID 31105178; details: mushroom enzyme; read-out: IC50 (TH Activity); cited from earlier work
[11] = test system: mushroom tyrosinase; set-up: method as in PMID 31105178; details: cited from earlier work; remark: listed apart in the source

SMILES	effect on tyrosinase activity ([1]; same conditions as LCA)	cytotoxicity (MTT) [2]	IC50 [3] [µM]	cell morphology (phase contrast) [4]	consumption of the inhibitor ([5]; absence of L-DOPA)	consumption of the inhibitor ([5]; presence of L-DOPA)	IC50 [6] [µM]	NDP-MSH-mediated induction of tyrosinase expression ([7]; 25 µM, NDP-MSH 10^−7 M, 48 h)	basal tyrosinase expression ([7]; HBL cells, CAME 25 µM or LCAME 25 or 50 µM, Western blot)	cell viability (MTT) ([2]; 50 μM)	IC50 ([8]; DO activity, L-DOPA 2.5 mM, read-out: IC50 (Mean ± SEM))	inhibitory effect on DO activity ([8]; fixed concentration of 25 μM)	effect on TH activity of human tyrosinase [9]	IC50 [10] [µM]	nature of tyrosinase inhibition (Lineweaver–Burk plots) [1]	IC50 ([1]; mushroom enzyme, read-out: IC50 (DO Activity)) [µM]	substrate of tyrosinase [11]
O=C(O)/C=C/c1ccc(O)c(O)c1 [CA, caffeic acid]	did not show any effect	not cytotoxic	–	–	–	–	–	–	–	–	–	–	–	–	–	–	–
COC(=O)/C=C/c1ccc(O)c(O)c1 [CAME, caffeic acid methyl ester, reference compound]	–	–	79 ± 7	became rounded	almost complete	extremely low	155 ± 7	similarly induced	No significant changes	reduced cell viability	–	–	–	–	–	–	–
O=C(O)/C=C/c1ccc(O)c(O)c1SCCC(S)CCCCC(=O)O (stereo not drawn) [LCA, 2-S-lipoylcaffeic acid]	–	not cytotoxic	–	–	–	–	–	–	–	–	76 µM and 76.2 µM	significant inhibitory effect	much smaller	2 ± 0.1	mixed type mechanism	3.22 ± 0.02	not to be a substrate of tyrosinase
